# Data taken from patent US12569536B2, “Macrocyclic peptides for targeted inhibition of autophagy” (Board of Regents, The University of Texas System, priority 2019, dated 2026).
# “Also recorded” adds a separate entry of the source. Read-outs that look alike come from different tables or passages of the source. Numbered stars: 1 amine (or outer) side, 2 acyl side, 3 side chain; on linkers, the order of the positions; unused ones are H or OH. Bridge positions count the residues as written; N and C are the ends. Square brackets hold non-standard residues; d marks the D form. Primed or numbered codes have the meaning given here. Ends that are not written are not given here. Peptide text beside a SMILES is read from it. DSG″ = disuccinimidyl glutarate, a bis-NHS cross-linker that leaves a glutaryl bridge between two amines; Glutaryl = O=C(CCCC(=O)[*:2])[*:1]; NMeA = CN[C@@H](C)C(=O)O
# Experiments:
# [1] = test system: OVCAR8 orthotopic ovarian tumors; test: Orthotopic ovarian tumor model with carboplatin; assay type: in vivo
# Protocol: FIG. 13: SUPR4B1W sensitizes orthotopic ovarian tumors to carboplatin treatment. Mice were injected IP with 2 million OVCAR8 cells and treated three times per week for four weeks with vehicle control, SUPR peptide (10 mg/kg), carboplatin (25 mg/kg), or combination of SUPR peptide and carboplatin. At the end of four weeks, mice were sacrificed and tumors were dissected. […] For each vertical groups of data points, the top group represents Mouse Weight and the bottom group represents Tumor Weight.
# In animal model experiments, mice were implanted with a cisplatin-resistant ovarian cancer cell line (OVCAR8) and treated with carboplatin, SUPR4B1W peptide, or carboplatin+SUPR4B1W peptide for 4 weeks. At the conclusion of the study, the mice were sacrificed and the mass of the intraperitoneal tumors measured.
# OVCAR8 cell line [2] = test: Western blots of LC3-I/LC3-II and p62, cisplatin-resistant ovarian cancer cells; assay type: cell-based; settings: 48 hr
# Text: (§1) FIGS. 12A-D: SUPR4B1W sensitizes ovarian cancer cells to cisplatin.
# Hey cell line [3] = test: as above; assay type: cell-based; settings: 48 hr
# Text: as §1
# OVCAR8 cell line [4] = test: MTT viability assay, cisplatin-resistant ovarian cancer cells; assay type: cell-based; settings: OVCAR8, cisplatin 10 μM + peptide, 48 hr
# Text: as §1
# Hey cell line [5] = test: as above; assay type: cell-based; settings: cisplatin 10 μM + peptide, 48 hr
# Text: as §1
# GABARAP2 = GABARAP2 (Homo sapiens, UniProt P60520); assay type: binding; settings: peptide immobilized on solid phase
# GABARAP2, sequence (P60520 1-116 limits assumed): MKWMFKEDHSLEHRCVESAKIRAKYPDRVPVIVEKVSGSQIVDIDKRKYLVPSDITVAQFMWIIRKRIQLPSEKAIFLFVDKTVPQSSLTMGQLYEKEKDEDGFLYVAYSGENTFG
# LC3B = LC3B (Homo sapiens, UniProt Q9GZQ8); assay type: binding; settings: peptide immobilized on solid phase
# [6] = test system: Atg4B:LC3-AMC interaction; test: Atg4B cleavage of LC3-AMC (fluorescence); assay type: biochemical; settings: LC3-AMC 120 nM, Atg4B 220 pM, increasing peptide concentrations
# Text: FIG. 9A—In naturally occurring LIMs, the most common amino acid in the leading position of the motif is tryptophan. […] The reason for this may be that there exists only one codon for tryptophan, making it much less likely to appear in a selected peptide than another W-site recognizing amino acid. Modifying the lead position of SUPR 4B (SEQ ID NO: 1) from phenylalanine to tryptophan was hypothesized to produce a peptide that obtains improved binding affinity towards LC3 by more closely mimicking a naturally occurring LIM. Tryptophan may also confer increased hydrophobicity, which may enhance cell uptake. […] Atg19 is provided in SEQ ID NO: 10, Atg32 is provided in SEQ ID NO: 11, Atg3 is provided in SEQ ID NO: 12, Atg4B is provided in SEQ ID NO: 13, p62 is provided in SEQ ID NO: 14, NBR1 is provided in SEQ ID NO: 15. […] FIG. 9D—LC3-AMC (120 nM) was incubated with Atg4B (220 pM) in the presence of SUPR4B1W or a non-functional scrambled variant at the concentrations shown. Cleavage of LC3-AMC was measured by increased fluorescence (λEx=380 nm, […]).
# Cleavage of LC3-AMC was measured by increased fluorescence.
# SKOv3 cells = test: MTT viability assay in DIRAS3 autophagy model; settings: 50 μM peptide; for cell viability (MTT), DIRAS3-induced (autophagic) cells: SKOv3, Dox-induced, 72 hours
# Protocol: (§2) FIGS. 6A-D: SUPR4B in the DIRAS3 autophagy model. FIGS. 6A&B—MTT viability assays with 50 M linear and cyclic SUPR 4B on non-DIRAS3 induced OVCAR8 (FIG. 6B) and SKOv3 (FIG. 6A) cells. […] Induction was performed using 1 g/mL DOX.
# (§3) FIGS. 8A-F: SUPR4B in the DIRAS3 autophagy model. […] Inhibition of autophagy by the present compound were hypothesized to restore cellular growth. […] FIGS. 8A&B—MTT viability assays with 50 M linear and cyclic SUPR on non-DIRAS3 induced OVCAR8 (FIG. 8A) and SKOv3 (FIG. 8B) cells. […] FIGS. 8C&D—MTT viability assays on the effect of 50 M linear and cyclic LC3 SUPR4B on DIRAS3-induced OVCAR8 (FIG. 8C) and SKOv3 (FIG. 8D) cells. Induction was performed using 1 g/mL DOX.
# (§4) After selection, the library was sequenced and lead compounds were subjected to thermodynamic and cellular assays to develop a structure-activity relationship modeling the interaction between the SUPR peptide and the target.
# SKOv3-ARHI cells = test: Western blotting of p62 and LC3I/LC3II in DIRAS3-induced cells; assay type: cell-based; settings: peptide-treated, 72 h
# Protocol: FIGS. 7A-B: SUPR4B in the DIRAS3 autophagy model.
# FIGS. 8A-F: SUPR4B in the DIRAS3 autophagy model. […] Induction was performed using 1 g/mL DOX.
# LC3C = biological target: T1, LC3C (Homo sapiens, UniProt Q9BXW4); assay type: binding; settings: peptide immobilized on solid phase
# T1 construct: made in house
# T1 sequence (Q9BXW4 1-126 limits assumed): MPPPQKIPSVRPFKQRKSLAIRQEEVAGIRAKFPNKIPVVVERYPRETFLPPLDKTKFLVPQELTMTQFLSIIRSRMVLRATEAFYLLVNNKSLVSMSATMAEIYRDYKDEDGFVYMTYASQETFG
# Atg8 = Atg8 (Saccharomyces cerevisiae, UniProt P38182); assay type: binding, yeast; settings: peptide immobilized on solid phase
# Atg8, sequence (P38182 1-116): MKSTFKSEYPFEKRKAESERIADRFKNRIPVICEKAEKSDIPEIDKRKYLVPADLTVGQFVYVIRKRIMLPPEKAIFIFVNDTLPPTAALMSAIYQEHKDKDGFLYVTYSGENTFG
# OVCAR8 cells = settings: 50 μM peptide; for cell viability (MTT), DIRAS3-induced (autophagic) cells: OVCAR8, Dox-induced, 72 hours
# Protocol: as §2, §3, §4
# ubiquitin = biological target: T2, ubiquitin (Homo sapiens, UniProt P62987); assay type: binding; settings: peptide immobilized on solid phase
# T2 construct: made in house
# LC3A = biological target: T3, LC3A (Homo sapiens, UniProt Q9H492); assay type: binding; settings: peptide immobilized on solid phase
# T3 construct: made in house
# GABARAP1 = assay type: binding; settings: peptide immobilized on solid phase
# LC3 = LC3 (Homo sapiens, UniProt Q9H492); test: Surface plasmon resonance binding to LC3
# [7] = test system: HeLa cells stably transfected with a GFP-LC3 fusion; assay type: cell-based; settings: HeLa starved in Hank's Balanced Salt Solution
# Text: FIG. 11: Confocal microscopy of SUPR 4B1W-Rox in autophagic HeLa cells. A line of HeLa cells was stably transfected with a GFP-LC3 fusion. When starved for 2+ hours in Hank's Balanced Salt Solution, these cells become autophagic and GFP signal becomes punctate as GFP-LC3 fusions are embedded in the autophagosome.
molecule,measurement,setting,value
CSCC[C@@H]1NC(=O)CCCC(=O)NCCCC[C@@H](C(=O)O)NC(=O)[C@H](C)N(C)C(=O)[C@H](C)NC(=O)[C@H]([C@@H](C)O)NC(=O)[C@H](C(C)C)NC(=O)[C@H](CCCNC(=N)N)NC(=O)[C@H](Cc2c[nH]cn2)NC(=O)[C@@H]2CCCN2C(=O)[C@H](Cc2c[nH]c3ccccc23)NC1=O [SUPR 4B1W] (MWPHRVTA[NMeA]K-OH; linker N-10 via Glutaryl),"number of mice with no detectable tumors, peptide combined with carboplatin","[1]; IP OVCAR8, four weeks, peptide 10 mg/kg + carboplatin 25 mg/kg",6 mice
same,"final tumor mass, agent administered alone","[1]; mice, IP OVCAR8, three times per week for four weeks, SUPR peptide 10 mg/kg or carboplatin 25 mg/kg",no change in tumor volume
same,"final tumor mass, peptide combined with carboplatin","[1]; mice, IP OVCAR8, three times per week for four weeks, peptide 10 mg/kg + carboplatin 25 mg/kg",almost completely tumor-free; also recorded: significantly reduced tumor mass
same,p62 accumulation in combination with cisplatin,"OVCAR8 cell line [2]; OVCAR8, cisplatin 10 μM + peptide 50 µM",triggered accumulation of p62
same,LC3-I/LC3-II ratios in combination with cisplatin,"OVCAR8 cell line [2]; OVCAR8, cisplatin 10 μM + peptide",dramatically perturbed LC3-I/LC3-II ratios
same,p62 accumulation in combination with cisplatin,Hey cell line [3]; cisplatin 10 μM + peptide 50 µM,triggered accumulation of p62
same,LC3-I/LC3-II ratios in combination with cisplatin,Hey cell line [3]; cisplatin 10 μM + peptide,dramatically perturbed LC3-I/LC3-II ratios
same,cell viability (MTT) in combination with cisplatin,OVCAR8 cell line [4],re-sensitized the resistant cell lines to cisplatin
same,cell viability (MTT) in combination with cisplatin,Hey cell line [5],re-sensitized the resistant cell lines to cisplatin
same,binding to GABARAP2,GABARAP2,moderate off-target binding
same,binding to LC3B,LC3B,bound tightly
same,Cleavage of LC3-AMC by Atg4B (fluorescent signal),[6],significantly decreased fluorescent signal
same,"cell viability (MTT), DIRAS3-induced (autophagic) cells",SKOv3 cells,enhanced viability rescue phenotype
same,"cell viability (MTT), DIRAS3-induced (autophagic) cells",SKOv3 cells; listed as SUPR4B1W,almost completely restores cell viability
same,"cell viability (MTT), non-DIRAS3 induced cells","SKOv3 cells; SKOv3, no Dox (non-autophagic), up to 72 hours",no change in cell viability
same,LC3I/LC3II ratio,SKOv3-ARHI cells,decreased LC3I/LC3II ratio
same,p62 protein levels,SKOv3-ARHI cells,accumulation of p62
same,binding to LC3C,LC3C,Almost no binding
same,binding to yeast LC3 ortholog Atg8,Atg8,moderate off-target binding
same,"cell viability (MTT), DIRAS3-induced (autophagic) cells",OVCAR8 cells,enhanced viability rescue phenotype
same,"cell viability (MTT), DIRAS3-induced (autophagic) cells",OVCAR8 cells; listed as SUPR4B1W,almost completely restores cell viability
same,"cell viability (MTT), non-DIRAS3 induced cells","OVCAR8 cells; OVCAR8, no Dox (non-autophagic), up to 72 hours",no change in cell viability
same,binding to ubiquitin,ubiquitin,Almost no binding
same,binding to LC3A,LC3A,bound tightly
same,binding to GABARAP1,GABARAP1,moderate off-target binding
same,improvement of apparent dissociation constant relative to SUPR4B,LC3,~10 fold
"SUPR 4B1W-ROX: SUPR 4B1W conjugated to the fluorophore ROX (MWPHRVTA[NMeA]K; bridge N-10 via DSG″; also: conjugated to fluorophore ROX, site not given here)",co-localization with GFP-LC3,[7],Significant co-localization of ROX and GFP signal
